The subject of series [1] is Hepatotoxicity.
For series [2], the system named is Hepatotoxicity. This is another data set of the same source.
Series [3] deals with Hepatotoxicity. This is another data set of the same source.
The subject of series [4] is Hepatotoxicity. This is another data set of the same source.
The subject of series [5] is Hepatotoxicity. This is another data set of the same source.
Series [6] has as its system Hepatotoxicity. This is another data set of the same source.
The test system of series [7] is Hepatotoxicity. This is another data set of the same source.
Series [8] relates to Hepatotoxicity. The source holds these as a separate data set.
Series [9] deals with Hepatotoxicity. This is another data set of the same source.
Series [10] concerns Hepatotoxicity. The source holds these as a separate data set.
For series [11], the system named is Hepatotoxicity. The source holds these as a separate data set.
Series [12] has as its system Hepatotoxicity. The source holds these as a separate data set.
Series [13] deals with Hepatotoxicity. This is another data set of the same source.
In series [14] the test system is Hepatotoxicity. The source holds these as a separate data set.

This note sets out measurements from ChEMBL document CHEMBL1909294, “Translating clinical findings into knowledge in drug safety evaluation--drug induced liver injury prediction system (DILIps)” (PLoS Comput Biol, 2011).
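Wherever HepSE Combined Scores is given: combined hepatic side effect score as listed in the training data of the Drug Induced Liver Injury Prediction System (DILIps).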
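Wherever HepSE bilirubinemia is given: bilirubinemia hepatic side effect score drawn from the DILIps training data, a prediction system for drug-induced liver injury; call rule not given here.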
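Wherever HepSE cholecystitis is given: Cholecystitis-related hepatic side effect score drawn from the DILIps (drug-induced liver injury prediction) training data set; call rule not given here.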
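Wherever HepSE cholelithiasis is given: hepatic side effect score for cholelithiasis, drawn from the DILIps training data for predicting drug-induced liver injury; call rule not given here.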
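Wherever HepSE cirrhosis is given: cirrhosis hepatic side effect score taken from the DILIps (drug-induced liver injury prediction) training set; call rule not given here.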
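Wherever HepSE elevated liver function tests is given: hepatic side effect score for raised liver function tests, as recorded in the DILIps training set used for predicting drug-induced liver injury.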
Wherever HepSE hepatic failure is given: call rule not given here.
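Wherever HepSE hepatic necrosis is given: score of hepatic side effects for hepatic necrosis, drawn from the training data of DILIps, a prediction system for drug-induced liver injury; call rule not given here.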
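Wherever HepSE hepatitis is given: Hepatitis-related hepatic side effect score taken from the training data of DILIps, a prediction system for drug-induced liver injury; call rule not given here.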
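Wherever HepSE hepatomegaly is given: hepatic side effect score for hepatomegaly, taken from the training set of the DILIps drug-induced liver injury prediction system; call rule not given here.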
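Wherever HepSE jaundice is given: Jaundice-related hepatic side-effect score drawn from the training data of the DILIps (drug-induced liver injury prediction system); call rule not given here.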
Wherever HepSE liver disease is given: call rule not given here.
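Wherever HepSE liver fatty is given: hepatic side effect score for fatty liver, taken from the DILIps training set for predicting drug-induced liver injury; call rule not given here.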
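Wherever HepSE liver function tests abnormal is given: hepatic side effect score taken from the DILIps (drug-induced liver injury prediction system) training data, here covering abnormal liver function test findings.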

As for `CO[C@H]1/C=C/O[C@@]2(C)Oc3c(C)c(O)c4c(c3C2=O)C2=NC3(CCN(CC(C)C)CC3)NC2=C(NC(=O)/C(C)=C\C=C\[C@H](C)[C@H](O)[C@@H](C)[C@@H](O)[C@@H](C)[C@H](OC(C)=O)[C@@H]1C)C4=O` [RIFABUTIN], the HepSE_bilirubinemia in series [1] (Liver) worked out at 0. Further, the HepSE_cholecystitis in series [2] (Liver) is 0. In series [3] (Liver), this compound returned a HepSE_cholelithiasis of 0. The HepSE_cirrhosis in [4] (Liver) is 0. Further, the “HepSE_elevated liver function tests” value in series [5] (Liver) was determined as 0. For the same compound, the HepSE_hepatic failure in [6] (Liver) stood at 0. The HepSE_hepatic necrosis in series [7] (Liver) came out at 0. This compound came in with a HepSE_hepatitis in [8] (Liver) of 1. Besides, the HepSE_hepatomegaly in series [9] (Liver) was 0. The same compound returned a HepSE_jaundice in series [10] (Liver) of 0. This compound also yielded a HepSE_liver disease in series [11] (Liver) of 0. For the same compound, the HepSE_liver fatty in [12] (Liver) is on record as 0. In [13] (Liver), the “HepSE_liver function tests abnormal” value stood at 0. Also, in [14] (Liver), the “HepSE_Combined Scores” value is 1.
On to `CO[C@H]1/C=C/O[C@@]2(C)Oc3c(C)c(O)c4c(O)c(c(/C=N/N5CCN(C)CC5)c(O)c4c3C2=O)NC(=O)/C(C)=C\C=C\[C@H](C)[C@H](O)[C@@H](C)[C@@H](O)[C@@H](C)[C@H](OC(C)=O)[C@@H]1C` [RIFAMPIN], for which the HepSE_bilirubinemia in series [1] is listed as 0. This compound also registered a HepSE_cholecystitis in [2] of 0. The compound also displayed a HepSE_cholelithiasis in series [3] of 0. In addition, the HepSE_cirrhosis in [4] is 0. Also, the “HepSE_elevated liver function tests” value in series [5] was determined as 0. In [6], the HepSE_hepatic failure is given as 0. This compound also registered a HepSE_hepatic necrosis in series [7] of 0. For the same compound, the HepSE_hepatitis in series [8] was determined as 1. In addition, in series [9], the HepSE_hepatomegaly was determined as 0. For the same compound, in [10], the HepSE_jaundice was 1. In series [11], this compound had a HepSE_liver disease of 0. In [12], the HepSE_liver fatty was 0. Moreover, the “HepSE_liver function tests abnormal” value in [13] was found to be 1. Further, the “HepSE_Combined Scores” value in series [14] turned out to be 3.
For the compound `CO[C@H]1/C=C/O[C@@]2(C)Oc3c(C)c(O)c4c(O)c(c(/C=N/N5CCN(C6CCCC6)CC5)c(O)c4c3C2=O)NC(=O)/C(C)=C\C=C\[C@H](C)[C@H](O)[C@@H](C)[C@@H](O)[C@@H](C)[C@H](OC(C)=O)[C@@H]1C` [RIFAPENTINE], the HepSE_bilirubinemia in series [1] was determined as 1. The compound further displayed a HepSE_cholecystitis in series [2] of 0. The HepSE_cholelithiasis in series [3] is reported as 0. This compound yielded a HepSE_cirrhosis in [4] of 0. The “HepSE_elevated liver function tests” value in [5] came to 0. This compound yielded a HepSE_hepatic failure in [6] of 0. Besides, the HepSE_hepatic necrosis in series [7] was found to be 0. In series [8], this compound showed a HepSE_hepatitis of 1. In addition, the HepSE_hepatomegaly in series [9] was 0. The same compound registered a HepSE_jaundice in series [10] of 0. The same compound returned a HepSE_liver disease in series [11] of 0. In series [12], the HepSE_liver fatty worked out at 0. Moreover, the “HepSE_liver function tests abnormal” value in series [13] is on record as 0. Moreover, the “HepSE_Combined Scores” value in series [14] was determined as 2.
As for `CO[C@H]1/C=C/O[C@@]2(C)Oc3c(C)c(O)c4c(O)c(c5c(nc6cc(C)ccn65)c4c3C2=O)NC(=O)/C(C)=C\C=C\[C@H](C)[C@H](O)[C@@H](C)[C@@H](O)[C@@H](C)[C@H](OC(C)=O)[C@@H]1C` [RIFAXIMIN], the HepSE_bilirubinemia in [1] is reported as 0. The HepSE_cholecystitis in [2] was determined as 0. Also, the HepSE_cholelithiasis in series [3] came out at 0. In [4], this compound showed a HepSE_cirrhosis of 0. Moreover, in series [5], the “HepSE_elevated liver function tests” value came to 0. The compound further had a HepSE_hepatic failure in series [6] of 0. The compound further registered a HepSE_hepatic necrosis in [7] of 0. Moreover, the HepSE_hepatitis in series [8] is reported as 0. The same compound yielded a HepSE_hepatomegaly in [9] of 0. In series [10], the HepSE_jaundice came out at 0. The same compound displayed a HepSE_liver disease in [11] of 0. In series [12], this compound had a HepSE_liver fatty of 0. Further, the “HepSE_liver function tests abnormal” value in [13] is listed as 0. Besides, the “HepSE_Combined Scores” value in [14] was determined as 0.
